Measured values published in the supplement of paper PMC4976141.
± gives the uncertainty stated by the source.

Experiments:
[1] = tested on: COLO-205; experiment: % viability in DMSO, miRNA mimic relative to NTC in DMSO; higher = less cytotoxic; conditions: drug used in drug arm: AZ628 1 uM; treatment: DMSO
Procedure: (§1)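 26 miRNA mimics were transfected into 8 cancer cell lines in triplicate. 48 h post-transfection, cells were treated 72 h with DMSO or a line-specific drug, then recovered 72 h drug-free. Drugs: COLO-205 AZ628 1 uM, MKN-45 crizotinib 1 uM, NCI-H596 paclitaxel 6 uM, EVSA-T GDC-0980 2.5 uM, M14 AZ628 1 uM, HCC-1954 GDC-0980 2.5 uM, NCI-H441 carboplatin 2.5 uM, SKBr3 lapatinib 1 uM. Surviving cells are expressed as % of NTC-transfected cells in DMSO (the NTC drug arm itself is about 30-50%), mean +- SEM.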

[2] = tested on: EVSA-T; experiment: as above; conditions: drug used in drug arm: GDC-0980 2.5 uM; treatment: DMSO
Procedure: as §1

[3] = tested on: HCC-1954; experiment: as above; conditions: drug used in drug arm: GDC-0980 2.5 uM; treatment: DMSO
Procedure: as §1

[4] = tested on: M14; experiment: as above; conditions: drug used in drug arm: AZ628 1 uM; treatment: DMSO
Procedure: as §1

[5] = tested on: MKN-45; experiment: as above; conditions: drug used in drug arm: crizotinib 1 uM; treatment: DMSO
Procedure: as §1

[6] = tested on: NCI-H441; experiment: as above; conditions: drug used in drug arm: carboplatin 2.5 uM; treatment: DMSO
Procedure: as §1

[7] = tested on: NCI-H596; experiment: as above; conditions: drug used in drug arm: paclitaxel 6 uM; treatment: DMSO
Procedure: as §1

[8] = tested on: SK-BR-3; experiment: as above; conditions: drug used in drug arm: lapatinib 1 uM; treatment: DMSO
Procedure: as §1

[9] = tested on: COLO-205; experiment: % viability under drug (72 h drug + 72 h recovery), miRNA mimic relative to NTC in DMSO; higher = more surviving cells; conditions: drug used in drug arm: AZ628 1 uM; treatment: drug
Procedure: as §1

[10] = tested on: EVSA-T; experiment: as above; conditions: drug used in drug arm: GDC-0980 2.5 uM; treatment: drug
Procedure: as §1

[11] = tested on: HCC-1954; experiment: as above; conditions: drug used in drug arm: GDC-0980 2.5 uM; treatment: drug
Procedure: as §1

[12] = tested on: M14; experiment: as above; conditions: drug used in drug arm: AZ628 1 uM; treatment: drug
Procedure: as §1

[13] = tested on: MKN-45; experiment: as above; conditions: drug used in drug arm: crizotinib 1 uM; treatment: drug
Procedure: as §1

[14] = tested on: NCI-H441; experiment: as above; conditions: drug used in drug arm: carboplatin 2.5 uM; treatment: drug
Procedure: as §1

[15] = tested on: NCI-H596; experiment: as above; conditions: drug used in drug arm: paclitaxel 6 uM; treatment: drug
Procedure: as §1

[16] = tested on: SK-BR-3; experiment: as above; conditions: drug used in drug arm: lapatinib 1 uM; treatment: drug
Procedure: as §1

[17] = tested on: PC9; experiment: cell count fold change with erlotinib, miRNA mimic vs non-targeting control (log2 ratio); higher = more drug-tolerant survivors than NTC; conditions: erlotinib 1 µM; 72 h drug + 72 h drug-free recovery; perturbation: miRNA mimic

Sequence | % viability in DMSO [1] [%] | % viability in DMSO [2] [%] | % viability in DMSO [3] [%] | % viability in DMSO [4] [%] | % viability in DMSO [5] [%] | % viability in DMSO [6] [%] | % viability in DMSO [7] [%] | % viability in DMSO [8] [%] | % viability under drug [9] [%] | % viability under drug [10] [%] | % viability under drug [11] [%] | % viability under drug [12] [%] | % viability under drug [13] [%] | % viability under drug [14] [%] | % viability under drug [15] [%] | % viability under drug [16] [%] | cell count fold change with erlotinib [17]
AAAAGUAAUUGUGGUUUUUGCC | 95 ± 6.9 | 71.9 ± 2.7 | 110 ± 9.3 | 85.4 ± 3.8 | 156 ± 2.2 | 106 ± 7.8 | 98.8 ± 8.3 | 80.3 ± 4.8 | 46.4 ± 1.6 | 0.3585 ± 0.0025 | 2.67 ± 0.17 | 21.9 ± 1.3 | 4.45 ± 0.12 | 24.2 ± 3.6 | 0.738 ± 0.0075 | 39.2 ± 11 | 0.561
AAAAGUAAUUGCGGAUUUUGCC | 101 ± 4.2 | 85.7 ± 0.94 | 117 ± 9.9 | 119 ± 24 | 136 ± 19 | 182 ± 14 | 95.4 ± 3.6 | 73.43 ± 0.24 | 42.6 ± 1 | 0.608 ± 0.1 | 3.99 ± 0.13 | 18 ± 0.42 | 4.35 ± 0.71 | 29.7 ± 2.4 | 1.3 ± 0.04 | 45.73 ± 0.37 | 0.467
CAAAAGUAAUUGUGGAUUUUGU | 106 ± 1.7 | 39.3 ± 3.4 | 88.3 ± 15 | 62.9 ± 9 | 40.7 ± 3.5 | 62.3 ± 2.6 | 73.6 ± 2.9 | 46.3 ± 3.1 | 44.6 ± 3.2 | 0.243 ± 0.018 | 1.55 ± 0.17 | 14.1 ± 0.89 | 1.49 ± 0.11 | 13.6 ± 2 | 0.808 ± 0.028 | 20.2 ± 1.6 | -2.88
AGUUAAUGAAUCCUGGAAAGU | 101.6 ± 0.44 | 26.1 ± 11 | 48.3 ± 2 | 55.5 ± 2.1 | 40.6 ± 10 | 61.6 ± 15 | 25.4 ± 6.1 | 33.3 ± 1.6 | 43.4 ± 1.2 | 0.344 ± 0.059 | 1.99 ± 0.45 | 9.17 ± 1.3 | 1.55 ± 0.042 | 14.3 ± 0.47 | 0.869 ± 0.086 | 19.2 ± 4 | -4.81
AAAAGUACUUGCGGAUUUUGCU | 101 ± 4.5 | 64.63 ± 0.49 | 100 ± 4.8 | 99.3 ± 19 | 142 ± 17 | 67.7 ± 7.8 | 89.1 ± 8.1 | 161 ± 7.2 | 49.9 ± 1.1 | 1.66 ± 0.013 | 4.02 ± 0.49 | 22.8 ± 0.71 | 4.2 ± 0.41 | 11.3 ± 2.9 | 2.53 ± 0.066 | 49.8 ± 2.7 | -3.1
GCGAGGACCCCUCGGGGUCUGAC | 105.2 ± 0.58 | 40.8 ± 0.66 | 56.4 ± 10 | 43.3 ± 5.2 | 53.2 ± 7 | 21.6 ± 1.6 | 76.8 ± 10 | 48.4 ± 5 | 43 ± 1.1 | 1.21 ± 0.28 | 2.54 ± 0.19 | 8.07 ± 0.6 | 1.84 ± 0.18 | 7.07 ± 0.39 | 3.656 ± 0.036 | 16.6 ± 6.8 | 0.35
ACAGUAGAGGGAGGAAUCGCAG | 94 ± 5.5 | 25.6 ± 1.8 | 64.5 ± 2.5 | 20 ± 3.4 | 31.6 ± 9.1 | 34.6 ± 18 | 65.6 ± 2.4 | 67.8 ± 13 | 37.6 ± 4.1 | 0.124 ± 0.035 | 1.37 ± 0.43 | 4.04 ± 0.76 | 0.428 ± 0.005 | 38.6 ± 6.2 | 0.53 ± 0.13 | 25.7 ± 0.71 | -3.56
CAAUGUUUCCACAGUGCAUCAC | 98.6 ± 2 | 2.27 ± 1.2 | 7.62 ± 0.18 | 42.7 ± 9 | 2.31 ± 0.74 | 2.78 ± 0.14 | 15.2 ± 1.5 | 16.8 ± 1.4 | 29.2 ± 4.1 | 0.155 ± 0.049 | 1.26 ± 0.032 | 5.66 ± 1.1 | 0.794 ± 0.25 | 4.19 ± 0.47 | 0.731 ± 0.068 | 9.29 ± 0.1 | -2.66
UAGGUAGUUUCAUGUUGUUGGG | 93.2 ± 4.5 | 11.4 ± 8.3 | 57.1 ± 7.2 | 69.5 ± 28 | 49.8 ± 27 | 23.3 ± 13 | 18.4 ± 2.9 | 39.6 ± 14 | 34.7 ± 0.96 | 0.1635 ± 0.0015 | 1.26 ± 0.1 | 6.29 ± 0.61 | 1.52 ± 0.25 | 6.39 ± 0.21 | 1.48 ± 0.34 | 16.1 ± 2.1 | -5.25
GAGCCAGUUGGACAGGAGC | 101 ± 6.3 | 28.9 ± 1 | 34 ± 6.2 | 97.9 ± 14 | 70.7 ± 8 | 60.7 ± 17 | 66.947 ± 0.021 | 178 ± 130 | 38.9 ± 1 | 0.0905 ± 0.0095 | 0.433 ± 0.085 | 6.67 ± 1.9 | 1.7 ± 0.21 | 18.1 ± 1.8 | 0.418 ± 0.032 | 48.1 ± 28 | -4.82
GUCAUACACGGCUCUCCUCUCU | 106 ± 3.9 | 3.87 ± 1.8 | 29.6 ± 4.2 | 15.5 ± 2.3 | 10.5 ± 0.39 | 8.42 ± 0.15 | 9.78 ± 0.74 | 17.1 ± 4.5 | 33 ± 2.9 | 0.124 ± 0.028 | 1.04 ± 0.13 | 1.73 ± 0.53 | 0.526 ± 0.15 | 3.92 ± 0.51 | 0.466 ± 0.077 | 12.8 ± 1.4 | -5.7
UGUCAGUUUGUCAAAUACCCCA | 98.3 ± 4.3 | 28 ± 2.1 | 31.9 ± 3.4 | 129 ± 10 | 142 ± 23 | 27.3 ± 6.4 | 22.8 ± 1.2 | 104 ± 12 | 38 ± 0.5 | 0.172 ± 0.0035 | 0.617 ± 0.0095 | 16.4 ± 2.8 | 2.37 ± 0.29 | 5.55 ± 0.62 | 0.42 ± 0.093 | 27.4 ± 1.9 | -5.21
